Converted amounts (≈) assume the structure as drawn.
Key:
S. aureus (MRSA) -385 = experiment: Anti-bacterial activity test 1: minimum growth inhibiting concentration (MIC); type: cell-based; settings: Staphylococcus aureus, strain -385 (PRC series), read-out: Anti-bacterial activity against MRSA MIC
Method: (§1) Minimum growth inhibiting concentration (MIC) of the compound represented by the general formula (I) was determined against some typical MRSA strains.

S. aureus (MRSA) -395 = experiment: as above; type: cell-based; settings: Staphylococcus aureus, strain -395 (PRC series), read-out: Anti-bacterial activity against MRSA MIC
Method: as §1

S. aureus (MRSA) -400 = experiment: as above; type: cell-based; settings: Staphylococcus aureus, strain -400 (PRC series), read-out: Anti-bacterial activity against MRSA MIC
Method: as §1

S. aureus (MRSA) -390 = experiment: as above; type: cell-based; settings: Staphylococcus aureus, strain -390 (PRC series), read-out: Anti-bacterial activity against MRSA MIC
Method: as §1

S. aureus (MRSA) -389 = experiment: as above; type: cell-based; settings: Staphylococcus aureus, strain -389 (PRC series), read-out: Anti-bacterial activity against MRSA MIC
Method: as §1

S. aureus (MRSA) -381 = experiment: as above; type: cell-based; settings: Staphylococcus aureus, strain -381 (PRC series), read-out: Anti-bacterial activity against MRSA MIC
Method: as §1

S. aureus (MRSA) PRC-376 = experiment: as above; type: cell-based; settings: Staphylococcus aureus, strain PRC-376, read-out: Anti-bacterial activity against MRSA MIC
Method: as §1

[1] = test system: methicillin resistant Staphylococcus aureus (TY-5548, higher resistant bacterium); experiment: Anti-bacterial activity test 4: propagation under cup with dust adsorbing oil on agar plate; type: cell-based; settings: dust adsorbing oil incorporated with 0.1% of compound; 100 µl in cup; 4°C overnight, then 37°C for 24 hours
Method: Anti-MRSA activity was afforded to a dust adsorbing oil for a dust control mop as described below.
Only non-volatile ingredients were recovered from a dust adsorbing oil for a mop by spraying (manufactured by Yamazaki Sangyo), and incorporated with 0.1% of Compound (V).
A 200 µl of a suspension containing methicillin resistant Staphylococcus aureus (TY-5548, higher resistant bacterium) in a level of 1 x 10⁵ - 10⁴ cells/ml was smeared on a plate count agar, on which stainless steel cups having a diameter of 12 mm were placed to add 100 µl of the oil solution prepared above. The plate thus having inoculated the bacterium was left standing at 4°C overnight and then cultured at 37°C for 24 hours. The propagation of the bacterium under the cup was evaluated.

[2] = test system: methicillin (DMPPC) resistant Staphylococcus aureus TY-5548; experiment: Anti-bacterial activity test 2: viable cell count on processed cotton cloth; type: cell-based; settings: stated for the test as a whole (TY-5548 and TY-5552)
Method: A cotton cloth was subjected to anti-bacterial processing with the compound of the general formula (I). The processing was carried out by applying a solution containing 0.05% of the compound of the general formula (I) and 1% of an organic silicone (fiber finish, Miki Riken) on the cotton cloth with the padding method. A cotton cloth (30 cm x 40 cm) was padded so that the pick-up was 70%, dried with hot air at 110°C for 3 minutes and further cured at 170°C for 1 minute. The anti-bacterial effect of the cotton cloth subjected to the anti-bacterial processing was evaluated with methicillin (DMPPC) resistant Staphylococcus aureus by the following method. The strains were selected on the basis of their resistances, and TY-5548 was selected as a higher resistant strain and TY-5552 as a lower resistant strain.
A 0.2 g sample of the cotton cloth was weighed, placed in a screw capped 30 ml vial and sterilized under pressure. The test strains had been pre-cultured and diluted with nutrient broth for inoculation to 5 - 30 x 10⁵ cells/ml. This culture medium was uniformly inoculated at an amount of 200 µl with a micropipette to the sample cloth, which was then incubated in an incubator at 37°C for 18 hours. […] The colonies grown were counted to calculate the viable cells in the sample piece.

[3] = test system: TY-5548, higher resistant bacterium; experiment: Anti-bacterial activity test 5: viable cell count on paint film; type: cell-based, Staphylococcus aureus; settings: paint film with 0.1% of compound
Excerpt: The compound of the general formula (I) was blended with a paint on the assumption that the paint is used around the medical facilities like in the case of Anti-bacterial activity test 3.
With an oil paint (manufactured by Shinto Toryo) 0.1% of the compound of the general formula (I) was mixed, and an appropriate dilution with thinner was spread over a stainless steel plate having a size of 3 cm x 3 cm and air-dried. The sample on which the film had been formed was sterilized with an alcohol and dried. The sample plate was placed in a glass dish, inoculated with 200 µl of the inoculation medium in Anti-bacterial activity test 3 (TY-5548, higher resistant bacterium) over the surface of the film and incubated at 37°C for 18 hours. After the incubation, 20 ml of a sterile physiological saline buffer was added to the medium to disperse the viable cells into the medium, and then the viable cells on the test piece were calculated in the same manner as in Anti-bacterial activity test 2.

| Structure (SMILES) | MIC (S. aureus (MRSA) -385) [µg/mL] | MIC (S. aureus (MRSA) -395) [µg/mL] | MIC (S. aureus (MRSA) -400) [µg/mL] | MIC (S. aureus (MRSA) -390) [µg/mL] | MIC (S. aureus (MRSA) -389) [µg/mL] | MIC (S. aureus (MRSA) -381) [µg/mL] | MIC (S. aureus (MRSA) PRC-376) [µg/mL] | propagation of the bacterium under the cup [1] | cell reducing rate of the inoculated cells [2] [%] | cell reducing rate of the inoculated cells [3] [%] |
| --- | --- | --- | --- | --- | --- | --- | --- | --- | --- | --- |
| Clc1ccc(COC(Cn2ccnc2)c2ccc(Cl)cc2)cc1 (centres unmarked) [p-Cl, H, p-Cl, H, 1-[2-(4-chlorobenzyloxy)-2-(4-chlorophenyl)-ethyl]imidazole] | 50 (≈ 144 µM) | 50 (≈ 144 µM) | 25 (≈ 72 µM) | 50 (≈ 144 µM) | 50 (≈ 144 µM) | 25 (≈ 72 µM) | 50 (≈ 144 µM) |  |  |  |
| Clc1ccc(COC(Cn2ccnc2)c2ccccc2Cl)cc1 (centres unmarked) [o-Cl, H, p-Cl, H, 1-[2-(4-chlorobenzyloxy)-2-(2-chlorophenyl)-ethyl]imidazole] | 25 (≈ 72 µM) | 25 (≈ 72 µM) | 12.5 (≈ 36 µM) | 25 (≈ 72 µM) | 25 (≈ 72 µM) | 12.5 (≈ 36 µM) | 25 (≈ 72 µM) | no propagation was observed | ≥ 99.9 | ≥ 99.9 |
| Clc1ccc(C(Cn2ccnc2)OCc2ccccc2Cl)cc1 (centres unmarked) [p-Cl, H, o-Cl, H, 1-[2-(2-chlorobenzyloxy)-2-(4-chlorophenyl)-ethyl]imidazole] | 50 (≈ 144 µM) | 50 (≈ 144 µM) | 25 (≈ 72 µM) | 50 (≈ 144 µM) | 50 (≈ 144 µM) | 25 (≈ 72 µM) | 50 (≈ 144 µM) |  |  |  |
| Clc1ccccc1C(Cn1ccnc1)OCc1ccccc1 (centres unmarked) [o-Cl, H, H, H, 1-[2-benzyloxy-2-(2-chlorophenyl)-ethyl]imidazole] | 100 (≈ 320 µM) | 100 (≈ 320 µM) | 50 (≈ 160 µM) | 100 (≈ 320 µM) | 100 (≈ 320 µM) | 50 (≈ 160 µM) | 100 (≈ 320 µM) |  |  |  |
| Clc1ccccc1COC(Cn1ccnc1)c1ccccc1Cl (centres unmarked) [o-Cl, H, o-Cl, H, 1-[2-(2-chlorobenzyloxy)-2-(2-chlorophenyl)-ethyl]imidazole] | 25 (≈ 72 µM) | 25 (≈ 72 µM) | 25 (≈ 72 µM) | 25 (≈ 72 µM) | 50 (≈ 144 µM) | 25 (≈ 72 µM) | 25 (≈ 72 µM) |  |  |  |
